pIC50: −log10 of the molar value.
What was measured:
[1] = Metabolic stability in human liver microsomes incubated for 10 mins prior to NADPH addition measured after 60 mins by LC/MS/MS analysis; assay type: ADME; conditions: read-out: Stability
[2] = target: 3',5'-cyclic-AMP phosphodiesterase 4D (Homo sapiens) (UniProt Q08499); assay: Inhibition of human recombinant PDE4D using [3H]-cAMP as substrate at 10 uM after 30 mins by two-step radiometric assay
[3] = target: cGMP-inhibited 3',5'-cyclic phosphodiesterase 3A (Homo sapiens) (UniProt Q14432); assay: Inhibition of human recombinant PDE3A using cAMP as substrate at 10 uM after 30 mins by HTRF method
[4] = target: T1, cAMP and cAMP-inhibited cGMP 3',5'-cyclic phosphodiesterase 10A (Rattus norvegicus, UniProt Q9QYJ6); assay: Inhibition of rat recombinant GST-tagged PDE10A using [3H]-cAMP as substrate by scintillation proximity assay
T1 sequence (Q9QYJ6 whole entry): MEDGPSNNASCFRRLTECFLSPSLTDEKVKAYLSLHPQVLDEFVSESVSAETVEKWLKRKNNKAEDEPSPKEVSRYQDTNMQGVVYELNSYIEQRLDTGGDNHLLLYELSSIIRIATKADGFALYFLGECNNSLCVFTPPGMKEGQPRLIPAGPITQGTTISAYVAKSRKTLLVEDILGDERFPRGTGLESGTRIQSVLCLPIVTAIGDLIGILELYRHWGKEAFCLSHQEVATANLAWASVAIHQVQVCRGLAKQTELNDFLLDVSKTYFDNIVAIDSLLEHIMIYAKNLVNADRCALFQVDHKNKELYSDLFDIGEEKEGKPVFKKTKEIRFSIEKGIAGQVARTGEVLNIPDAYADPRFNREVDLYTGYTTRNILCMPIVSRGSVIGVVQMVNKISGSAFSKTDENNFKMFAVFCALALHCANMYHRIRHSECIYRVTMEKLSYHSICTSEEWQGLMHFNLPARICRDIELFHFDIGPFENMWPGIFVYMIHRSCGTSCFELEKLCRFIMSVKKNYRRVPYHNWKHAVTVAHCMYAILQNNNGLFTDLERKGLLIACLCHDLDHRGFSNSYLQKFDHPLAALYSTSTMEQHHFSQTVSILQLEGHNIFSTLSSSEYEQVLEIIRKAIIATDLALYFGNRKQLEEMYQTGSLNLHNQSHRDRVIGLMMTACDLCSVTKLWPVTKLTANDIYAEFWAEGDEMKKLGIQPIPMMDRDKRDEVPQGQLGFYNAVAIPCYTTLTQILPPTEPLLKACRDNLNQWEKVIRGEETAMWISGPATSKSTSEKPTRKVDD

[5] = target: 3',5'-cyclic-AMP phosphodiesterase 4D (Homo sapiens) (UniProt Q08499); assay: Inhibition of human recombinant PDE4D using [3H]-cAMP as substrate at 1 uM after 30 mins by two-step radiometric assay
[6] = target: cGMP-inhibited 3',5'-cyclic phosphodiesterase 3A (Homo sapiens) (UniProt Q14432); assay: Inhibition of human recombinant PDE3A using cAMP as substrate at 1 uM after 30 mins by HTRF method
[7] = Metabolic stability in Beagle dog liver microsomes incubated for 10 mins prior to NADPH addition measured after 60 mins by LC/MS/MS analysis; assay type: ADME, Canis lupus familiaris; conditions: read-out: Stability
[8] = target: High affinity 3',5'-cyclic-AMP phosphodiesterase 7A (Homo sapiens) (UniProt Q13946); assay: Inhibition of human recombinant PDE7A using [3H]-cAMP as substrate at 1 uM after 30 mins by two-step radiometric assay
[9] = target: cGMP-specific 3',5'-cyclic phosphodiesterase (Homo sapiens) (UniProt O76074); assay: Inhibition of human recombinant PDE5A using […] as substrate at 1 uM after 30 mins by scintillation proximity assay
[10] = Metabolic stability in cynomolgus monkey liver microsomes incubated for 10 mins prior to NADPH addition measured after 60 mins by LC/MS/MS analysis; assay type: ADME, Macaca fascicularis; conditions: read-out: Stability
[11] = Metabolic stability in CD1 mouse liver microsomes incubated for 10 mins prior to NADPH addition measured after 60 mins by LC/MS/MS analysis; assay type: ADME; conditions: read-out: Stability
[12] = target: cGMP-dependent 3',5'-cyclic phosphodiesterase (Homo sapiens) (UniProt O00408); assay: Inhibition of human recombinant PDE2A using cAMP as substrate at 10 uM after 30 mins by HTRF method
[13] = target: T2, cAMP and cAMP-inhibited cGMP 3',5'-cyclic phosphodiesterase 10A (Mus musculus, UniProt Q8CA95); assay: Inhibition of mouse recombinant GST-tagged PDE10A using [3H]-cAMP as substrate after 30 mins by scintillation proximity assay
T2 sequence (Q8CA95 whole entry): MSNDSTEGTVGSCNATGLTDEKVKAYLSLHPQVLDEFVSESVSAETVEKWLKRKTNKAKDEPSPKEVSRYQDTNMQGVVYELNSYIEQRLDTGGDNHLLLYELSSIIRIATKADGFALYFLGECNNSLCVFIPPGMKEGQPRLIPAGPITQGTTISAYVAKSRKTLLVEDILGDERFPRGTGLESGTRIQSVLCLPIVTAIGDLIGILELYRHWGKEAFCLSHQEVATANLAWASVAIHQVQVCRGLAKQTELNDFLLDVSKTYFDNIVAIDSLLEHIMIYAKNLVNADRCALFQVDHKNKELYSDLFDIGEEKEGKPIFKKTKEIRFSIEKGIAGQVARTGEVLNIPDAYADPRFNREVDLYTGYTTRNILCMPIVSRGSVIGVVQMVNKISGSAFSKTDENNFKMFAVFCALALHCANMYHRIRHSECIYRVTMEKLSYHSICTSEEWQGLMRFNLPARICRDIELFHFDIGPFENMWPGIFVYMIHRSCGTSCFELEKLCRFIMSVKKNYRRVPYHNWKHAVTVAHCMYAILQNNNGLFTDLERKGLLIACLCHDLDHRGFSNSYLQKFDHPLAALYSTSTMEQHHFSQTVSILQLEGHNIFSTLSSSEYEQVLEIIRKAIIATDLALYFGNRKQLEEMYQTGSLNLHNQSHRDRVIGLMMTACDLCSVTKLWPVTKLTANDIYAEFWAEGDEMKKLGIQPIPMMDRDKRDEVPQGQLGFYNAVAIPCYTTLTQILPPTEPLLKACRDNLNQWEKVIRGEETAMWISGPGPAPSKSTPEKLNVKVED

[14] = target: Dual 3',5'-cyclic-AMP and -GMP phosphodiesterase 11A (Homo sapiens) (UniProt Q9HCR9); assay: Inhibition of human recombinant PDE11A using [3H]-cAMP as substrate at 10 uM after 30 mins by two-step radiometric assay
[15] = target: cGMP-dependent 3',5'-cyclic phosphodiesterase (Homo sapiens) (UniProt O00408); assay: Inhibition of human recombinant PDE2A using cAMP as substrate at 1 uM after 30 mins by HTRF method
[16] = target: High affinity 3',5'-cyclic-AMP phosphodiesterase 7A (Homo sapiens) (UniProt Q13946); assay: Inhibition of human recombinant PDE7A using [3H]-cAMP as substrate at 10 uM after 30 mins by two-step radiometric assay
[17] = target: Dual 3',5'-cyclic-AMP and -GMP phosphodiesterase 11A (Homo sapiens) (UniProt Q9HCR9); assay: Inhibition of human recombinant PDE11A using [3H]-cAMP as substrate at 1 uM after 30 mins by two-step radiometric assay
[18] = target: cGMP-specific 3',5'-cyclic phosphodiesterase (Homo sapiens) (UniProt O76074); assay: Inhibition of human recombinant PDE5A using […] as substrate at 10 uM after 30 mins by scintillation proximity assay
[19] = Metabolic stability in Wistar rat liver microsomes incubated for 10 mins prior to NADPH addition measured after 60 mins by LC/MS/MS analysis; assay type: ADME; conditions: read-out: Stability
[20] = target: T3, cAMP and cAMP-inhibited cGMP 3',5'-cyclic phosphodiesterase 10A (Homo sapiens, UniProt Q9Y233); assay: Inhibition of human recombinant GST-tagged PDE10A using [3H]-cAMP as substrate after 30 mins by scintillation proximity assay
[21] = target: T3, cAMP and cAMP-inhibited cGMP 3',5'-cyclic phosphodiesterase 10A; assay: Inhibition of human recombinant GST-tagged PDE10A using [3H]-cAMP as substrate at 1 uM after 30 mins by scintillation proximity assay

T3 sequence (Q9Y233 whole entry): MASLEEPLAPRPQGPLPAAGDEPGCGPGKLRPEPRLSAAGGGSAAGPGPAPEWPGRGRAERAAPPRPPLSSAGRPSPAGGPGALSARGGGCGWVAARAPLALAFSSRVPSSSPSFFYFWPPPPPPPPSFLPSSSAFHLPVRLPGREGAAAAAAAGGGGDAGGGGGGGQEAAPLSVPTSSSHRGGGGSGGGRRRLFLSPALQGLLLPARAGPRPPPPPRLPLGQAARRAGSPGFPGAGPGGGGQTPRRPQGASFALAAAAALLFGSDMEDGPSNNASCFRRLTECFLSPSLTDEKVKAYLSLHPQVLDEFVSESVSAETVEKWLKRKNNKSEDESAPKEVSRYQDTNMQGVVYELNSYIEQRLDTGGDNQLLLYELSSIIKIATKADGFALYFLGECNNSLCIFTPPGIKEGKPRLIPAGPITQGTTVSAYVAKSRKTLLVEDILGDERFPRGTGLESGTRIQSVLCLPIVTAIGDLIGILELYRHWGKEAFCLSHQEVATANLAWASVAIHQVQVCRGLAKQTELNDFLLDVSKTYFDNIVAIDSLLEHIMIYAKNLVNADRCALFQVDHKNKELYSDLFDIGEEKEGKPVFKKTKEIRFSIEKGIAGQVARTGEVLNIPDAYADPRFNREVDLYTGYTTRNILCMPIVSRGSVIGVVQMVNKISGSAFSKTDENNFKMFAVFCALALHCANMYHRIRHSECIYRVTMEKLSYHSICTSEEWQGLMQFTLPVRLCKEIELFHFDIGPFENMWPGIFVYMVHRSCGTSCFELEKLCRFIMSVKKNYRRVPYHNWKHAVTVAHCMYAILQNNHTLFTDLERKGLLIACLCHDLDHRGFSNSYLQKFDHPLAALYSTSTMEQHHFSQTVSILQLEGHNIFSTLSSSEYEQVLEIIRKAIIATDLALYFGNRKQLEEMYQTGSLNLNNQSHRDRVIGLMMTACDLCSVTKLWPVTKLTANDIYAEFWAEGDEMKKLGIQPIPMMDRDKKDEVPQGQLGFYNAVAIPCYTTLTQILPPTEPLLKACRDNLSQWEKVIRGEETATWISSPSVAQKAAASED
Sequence of cGMP-inhibited 3',5'-cyclic phosphodiesterase 3A (Homo sapiens) (Q14432 whole entry): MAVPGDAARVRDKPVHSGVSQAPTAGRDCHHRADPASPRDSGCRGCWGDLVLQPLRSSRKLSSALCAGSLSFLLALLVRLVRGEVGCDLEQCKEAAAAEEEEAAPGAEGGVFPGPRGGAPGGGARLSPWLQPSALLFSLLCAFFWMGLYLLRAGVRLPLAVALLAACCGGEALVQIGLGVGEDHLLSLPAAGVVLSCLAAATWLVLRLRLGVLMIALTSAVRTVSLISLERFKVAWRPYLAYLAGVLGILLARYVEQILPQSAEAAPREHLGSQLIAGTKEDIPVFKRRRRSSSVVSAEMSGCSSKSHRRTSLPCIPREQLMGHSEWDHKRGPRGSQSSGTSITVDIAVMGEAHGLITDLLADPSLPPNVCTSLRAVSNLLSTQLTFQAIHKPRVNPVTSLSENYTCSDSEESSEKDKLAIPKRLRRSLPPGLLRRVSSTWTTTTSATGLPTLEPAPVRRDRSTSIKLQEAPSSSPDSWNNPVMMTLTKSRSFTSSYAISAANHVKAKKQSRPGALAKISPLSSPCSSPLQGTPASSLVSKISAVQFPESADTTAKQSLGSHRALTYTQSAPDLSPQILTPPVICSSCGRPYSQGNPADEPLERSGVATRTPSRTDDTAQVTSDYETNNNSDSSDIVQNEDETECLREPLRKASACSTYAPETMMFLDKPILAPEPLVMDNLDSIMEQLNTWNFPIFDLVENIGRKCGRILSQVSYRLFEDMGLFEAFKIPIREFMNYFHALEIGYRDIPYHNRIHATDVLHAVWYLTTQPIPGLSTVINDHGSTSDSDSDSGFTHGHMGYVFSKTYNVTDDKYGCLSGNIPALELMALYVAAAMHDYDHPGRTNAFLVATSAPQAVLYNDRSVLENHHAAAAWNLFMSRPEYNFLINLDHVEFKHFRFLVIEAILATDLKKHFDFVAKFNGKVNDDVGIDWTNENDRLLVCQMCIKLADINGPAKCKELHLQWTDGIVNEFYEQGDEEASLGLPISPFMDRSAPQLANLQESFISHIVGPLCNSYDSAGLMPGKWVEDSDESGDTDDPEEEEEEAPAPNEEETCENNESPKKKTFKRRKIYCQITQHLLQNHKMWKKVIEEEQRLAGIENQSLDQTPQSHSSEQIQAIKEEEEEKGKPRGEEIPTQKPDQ
Sequence of 3',5'-cyclic-AMP phosphodiesterase 4D (Homo sapiens) (Q08499 whole entry): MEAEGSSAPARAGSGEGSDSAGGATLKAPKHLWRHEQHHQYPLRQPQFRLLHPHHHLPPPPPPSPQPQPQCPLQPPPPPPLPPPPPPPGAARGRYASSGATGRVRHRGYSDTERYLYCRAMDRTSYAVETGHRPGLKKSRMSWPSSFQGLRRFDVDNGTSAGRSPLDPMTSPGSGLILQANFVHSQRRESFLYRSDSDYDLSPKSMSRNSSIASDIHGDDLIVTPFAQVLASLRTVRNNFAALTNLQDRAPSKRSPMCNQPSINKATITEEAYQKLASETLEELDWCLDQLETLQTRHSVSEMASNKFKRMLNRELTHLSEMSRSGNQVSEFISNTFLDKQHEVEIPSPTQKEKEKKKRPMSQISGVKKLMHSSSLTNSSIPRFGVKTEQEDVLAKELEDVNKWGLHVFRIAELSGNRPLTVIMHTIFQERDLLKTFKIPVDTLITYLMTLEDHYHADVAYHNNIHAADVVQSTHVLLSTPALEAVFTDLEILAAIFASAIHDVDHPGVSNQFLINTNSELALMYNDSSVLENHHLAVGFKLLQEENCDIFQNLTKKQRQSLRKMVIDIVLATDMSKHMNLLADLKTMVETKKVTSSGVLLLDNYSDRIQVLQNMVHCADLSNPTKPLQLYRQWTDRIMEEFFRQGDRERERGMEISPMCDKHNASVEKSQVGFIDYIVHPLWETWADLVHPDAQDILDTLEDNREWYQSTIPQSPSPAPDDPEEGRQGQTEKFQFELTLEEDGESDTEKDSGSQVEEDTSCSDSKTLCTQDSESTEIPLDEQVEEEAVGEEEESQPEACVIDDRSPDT
Sequence of High affinity 3',5'-cyclic-AMP phosphodiesterase 7A (Homo sapiens) (Q13946 whole entry): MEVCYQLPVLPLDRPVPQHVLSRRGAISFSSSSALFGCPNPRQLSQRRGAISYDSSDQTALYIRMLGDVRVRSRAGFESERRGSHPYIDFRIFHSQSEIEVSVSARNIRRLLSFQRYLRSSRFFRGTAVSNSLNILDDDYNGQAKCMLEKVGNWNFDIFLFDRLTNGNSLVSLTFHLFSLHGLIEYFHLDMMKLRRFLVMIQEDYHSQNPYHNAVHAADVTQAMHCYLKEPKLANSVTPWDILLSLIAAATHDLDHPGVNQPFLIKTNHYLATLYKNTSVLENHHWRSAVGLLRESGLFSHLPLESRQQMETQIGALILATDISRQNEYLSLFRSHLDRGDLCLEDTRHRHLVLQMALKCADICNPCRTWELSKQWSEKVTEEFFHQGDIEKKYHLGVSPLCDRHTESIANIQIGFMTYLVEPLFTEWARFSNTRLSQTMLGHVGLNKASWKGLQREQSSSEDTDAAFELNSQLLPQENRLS
Sequence of cGMP-dependent 3',5'-cyclic phosphodiesterase (Homo sapiens) (O00408 whole entry): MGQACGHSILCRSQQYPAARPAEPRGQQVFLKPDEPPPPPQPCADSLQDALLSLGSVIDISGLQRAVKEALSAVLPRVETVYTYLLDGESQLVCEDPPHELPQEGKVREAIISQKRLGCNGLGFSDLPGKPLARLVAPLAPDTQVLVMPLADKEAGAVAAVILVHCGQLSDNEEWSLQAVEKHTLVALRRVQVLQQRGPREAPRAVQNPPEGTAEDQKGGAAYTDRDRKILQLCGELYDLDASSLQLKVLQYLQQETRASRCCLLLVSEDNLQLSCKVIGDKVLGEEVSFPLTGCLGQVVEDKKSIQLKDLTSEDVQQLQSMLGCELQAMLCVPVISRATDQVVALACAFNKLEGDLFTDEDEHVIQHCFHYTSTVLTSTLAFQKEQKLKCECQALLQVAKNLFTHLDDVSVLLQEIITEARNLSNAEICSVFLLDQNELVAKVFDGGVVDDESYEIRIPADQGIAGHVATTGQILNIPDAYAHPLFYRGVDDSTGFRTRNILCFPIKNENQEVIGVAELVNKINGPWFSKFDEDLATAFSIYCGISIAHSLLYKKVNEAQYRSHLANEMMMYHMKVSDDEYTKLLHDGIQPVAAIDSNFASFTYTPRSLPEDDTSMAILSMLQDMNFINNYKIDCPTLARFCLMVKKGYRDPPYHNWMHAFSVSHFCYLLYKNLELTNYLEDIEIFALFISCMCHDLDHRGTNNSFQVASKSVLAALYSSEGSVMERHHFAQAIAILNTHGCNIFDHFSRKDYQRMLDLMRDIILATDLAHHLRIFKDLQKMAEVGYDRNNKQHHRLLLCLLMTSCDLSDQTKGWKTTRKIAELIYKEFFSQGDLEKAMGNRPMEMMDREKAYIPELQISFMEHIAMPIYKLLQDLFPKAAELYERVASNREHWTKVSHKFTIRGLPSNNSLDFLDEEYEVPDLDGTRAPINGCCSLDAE

remaining at 1 h [1]	inhibition [2]	inhibition [3]	pIC50 [4]	inhibition [5]	inhibition [6]	remaining at 1 h [7]	inhibition [8]	inhibition [9]	remaining at 1 h [10]	remaining at 1 h [11]	inhibition [12]	inhibition [14]	inhibition [15]	inhibition [16]	inhibition [17]	inhibition [18]	remaining at 1 h [19]	pIC50 [20]	inhibition [21]	Structure (SMILES)	further results
59.6%	18%	7.4%	8.24	0.9%	0.1%	39.7%	5%	2.2%	39.8%	40.2%	69.6%	29%	16.6%	39.9%	3%	23.2%	38.4%	8.89	98%	Cn1cc(-c2ccc(Oc3ncccc3-c3ccncc3)cc2)c2ncccc21	pIC50 [13]: 8.39
85.2%	19.5%	9.4%	7.51	1.3%	0.3%	77%	6%	9.4%	68.3%	76.1%	14.2%	21.8%	8.9%	20.2%	3.3%	17.3%	83.1%	7.72	94.8%	Cn1cc(-c2ccc(Oc3nccnc3-c3cncnc3)cc2)c2nc3ccccc3cc21	
39.8%	57%	4.8%	7.04	4.2%	1.1%	40.3%	4.5%	1.5%	4.5%	3.9%	38.5%	43.8%	11.4%	14%	24.4%	23.6%	44.7%	7.74	95%	Cn1cc(-c2cccc(Oc3nccc(-c4cncnc4)n3)c2)c2nc3ccccc3cc21	
			5.84															6.57	76.3%	Cn1cc(-c2cccc(Oc3nccnc3-c3cncnc3)c2)c2nc3ccccc3cc21	
8.2%	1%	21.5%	6.78	5.6%	0.3%	1.3%	5.8%	16%	0.6%	0.6%	76.2%	76.3%	15.7%	19.5%	44.6%	33.3%	0.4%	7.53	93.1%	Cn1cc(-c2cccc(Oc3nccc(N4CCOCC4)n3)c2)c2nc3ccccc3cc21	
12.2%			6.26			43.3%			0%	8.5%							5.9%	6.87	78%	Cn1cc(C2=CCC(Oc3nccnc3-c3cncnc3)CC2)c2ncccc21 (stereo unspecified)	
75.4%	34.7%	27.5%	6.91	7.9%	4.5%	52%	16.7%	8.2%	38.1%	60.4%	40.8%	38.5%	16.1%	27.2%	27.3%	19%	17.3%	7.68	89.3%	Cn1cc(-c2cccc(Oc3nccc(-c4cn[nH]c4)n3)c2)c2nc3ccccc3cc21	
																		6.94	76.3%	Cn1cc(-c2cccc(Oc3nccc(-c4ccc(F)cc4)n3)c2)c2nc3ccccc3cc21	
			6.88															6.82	72.3%	COc1ccc(-c2nccnc2Oc2ccc(-c3cn(C)c4cc5ccccc5nc34)cc2)cc1	
																		6.99	72.4%	COc1ccc(-c2ccnc(Oc3cccc(-c4cn(C)c5cc6ccccc6nc45)c3)n2)cc1	
																		6.75	76.9%	Cn1cc(-c2ccc(Oc3nccnc3-c3ccc(F)cc3)cc2)c2nc3ccccc3cc21	
48.8%			6.43			68.6%			0%	50.3%							72.5%	6.26	68.9%	Cn1cc(C2CCC(Oc3nccnc3-c3cncnc3)CC2)c2ncccc21 (stereo unspecified)	
77%	25.4%	9.8%	6.85	4.1%	0.7%	55.3%	5.9%	0.1%	40.7%	70.5%	16.1%	5.7%	11.3%	53.1%	3.1%	19.3%	68%	7.15	79.7%	Cn1cc(-c2ccc(Oc3nccnc3-c3ccncc3)cc2)c2ncc(Cl)cc21	
																		6.89	85.3%	Cn1cc(-c2ccc(Oc3nccc(-c4cncnc4)n3)cc2)c2nc3ccccc3cc21	

From ChEMBL document CHEMBL3352660, “Design, synthesis and pharmacological evaluation of novel polycyclic heteroarene ethers as PDE10A inhibitors: part II” (Bioorg Med Chem Lett, 2014)
